Results on eight molecules are retold here after patent publication US7598237B2 (Wyeth, priority 2004, dated 2009).

The target in the first data set is T1, progesterone receptor (PR) (Homo sapiens, UniProt P06401).
T1 construct: effect on alkaline phosphatase activity in T47D cells; endogenous in cells; host or cells: T47D cells
T1 sequence (P06401 1-933): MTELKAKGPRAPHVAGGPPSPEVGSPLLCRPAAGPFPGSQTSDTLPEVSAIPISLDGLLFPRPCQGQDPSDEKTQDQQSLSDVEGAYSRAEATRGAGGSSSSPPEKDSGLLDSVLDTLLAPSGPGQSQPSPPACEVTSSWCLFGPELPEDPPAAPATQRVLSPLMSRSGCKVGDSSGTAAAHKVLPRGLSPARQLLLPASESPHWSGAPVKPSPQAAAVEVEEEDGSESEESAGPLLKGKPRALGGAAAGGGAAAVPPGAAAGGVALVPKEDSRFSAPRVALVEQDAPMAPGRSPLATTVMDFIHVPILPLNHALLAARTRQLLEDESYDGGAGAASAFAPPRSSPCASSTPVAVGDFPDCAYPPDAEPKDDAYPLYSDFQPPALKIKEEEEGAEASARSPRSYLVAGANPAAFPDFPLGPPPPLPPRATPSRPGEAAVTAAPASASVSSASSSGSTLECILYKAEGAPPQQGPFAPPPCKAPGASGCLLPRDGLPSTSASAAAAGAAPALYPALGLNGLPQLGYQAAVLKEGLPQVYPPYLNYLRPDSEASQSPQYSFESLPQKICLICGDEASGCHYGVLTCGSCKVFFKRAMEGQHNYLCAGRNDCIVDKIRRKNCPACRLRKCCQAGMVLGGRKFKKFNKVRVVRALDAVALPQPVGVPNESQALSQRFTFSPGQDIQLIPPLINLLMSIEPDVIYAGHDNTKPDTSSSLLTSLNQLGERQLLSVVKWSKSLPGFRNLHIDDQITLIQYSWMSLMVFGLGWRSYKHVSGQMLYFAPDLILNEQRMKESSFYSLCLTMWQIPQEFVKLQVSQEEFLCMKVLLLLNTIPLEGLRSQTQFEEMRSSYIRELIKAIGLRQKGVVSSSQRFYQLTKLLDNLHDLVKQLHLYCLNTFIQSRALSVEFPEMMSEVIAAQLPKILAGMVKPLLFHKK
Kind of data set: T47D cell alkaline phosphatase assay. Format: cell-based. Conditions: T47D cells; antagonist mode, in the presence of 1 nM progesterone; first TABLE 2; read-out: Alk. Phos. IC50. The protocol:
(4) T47D Cell Alkaline Phosphatase Assay
To identify progestins or antiprogestins by determining a compound's effect on alkaline phosphatase activity in T47D cells.
DMEM:F12 (1:1) (GIBCO, BRL) supplemented with 5% (v/v) charcoal stripped fetal bovine serum (not heat-inactivated), 100 U/ml penicillin, […], and 2 mM GlutaMax (GIBCO, BRL).
I. 0.1 M Tris-HCl, pH 9.8, containing 0.2% Triton X-100
II. 0.1 M Tris-HCl, pH 9.8 containing 4 mM p-nitrophenyl phosphate (Sigma).
Frozen T47D cells were thawed in a 37° C. water bath and diluted to 280,000 cells/ml in culture medium. To each well in a 96-well plate (Falcon, Becton Dickinson Labware), 180 μl of diluted cell suspension was added. Twenty μl of reference or test compounds diluted in the culture medium was then added to each well. […] The cells were incubated at 37° C. in a 5% CO2/humidified atmosphere for 24 hr.
Note: For high throughput screening, one concentration of each compound was tested at 0.3 mg/ml. Based on an average molecular weight of 300 g/mol for the compounds in the library, the concentration was approximately 1 mM. […] Alkaline Phosphatase Enzyme Assay: […]
For reference and test compounds, a dose response curve was generated for dose (X-axis) vs. the rate of enzyme reaction (slope) (Y-axis). […] EC50 or IC50 values were calculated from the retransformed values. […]
A word on the IC50: it is the point on the concentration scale where inhibition reaches its midpoint. `Cn1c(C#N)ccc1-c1ccc2c(c1)C(c1cccs1)(c1cccs1)OCC(=O)N2` [Compound 14, 1-Methyl-5-(2-oxo-5,5-dithien-2-yl-1,2,3,5-tetrahydro-4,1-benzoxazepin-7-yl)-1H-pyrrole-2-carbonitrile]: the IC50 came out at 11.3 nM.

Regarding `CCC1(c2cccs2)OCC(=O)Nc2ccc(-c3ccc(C#N)n3C)cc21` (centres unmarked) [Compound 19, 5-(5-Ethyl-2-oxo-5-thien-2-yl-1,2,3,5-tetrahydro-4,1-benzoxazepin-7-yl)-1-methyl-1H-pyrrole-2-carbonitrile], the IC50 came to 14.6 nM.

Test system in another data set: not given
Assay: not given
Conditions: not given
For orientation: melting point means the temperature, or range, at which the solid turns liquid. Molecule `CC1(C)OCC(=O)Nc2ccc(-c3cc(F)cc(C#N)c3)cc21` [Compound 3, 3-(5,5-dimethyl-2-oxo-1,2,3,5-tetrahydro-4,1-benzoxazepin-7-yl)-5-fluorobenzonitrile] registered a melting point of 238 to 239 °C.

`Cn1c(C#N)ccc1-c1ccc2c(c1)C(C)(c1cccs1)OCC(=O)N2` (centres unmarked) [Compound 6, 1-Methyl-5-[5-methyl-2-oxo-5-(2-thienyl)-1,2,3,5-tetrahydro-4,1-benzoxazepin-7-yl]-1H-pyrrole-2-carbonitrile] had a melting point of 197 to 198 °C.

With `CCC1(c2cccs2)OCC(=O)Nc2ccc(-c3csc(C#N)c3)cc21` (centres unmarked) [Example 143, 4-(5-Ethyl-2-oxo-5-thien-2-yl-1,2,3,5-tetrahydro-4,1-benzoxazepin-7-yl)thiophene-2-carbonitrile], the melting point was 202 to 204 °C.

The molecule `CCC1(c2cccs2)OCC(=O)Nc2ccc(-c3coc(C#N)c3)cc21` (centres unmarked) [Example 141, 4-(5-Ethyl-2-oxo-5-thien-2-yl-1,2,3,5-tetrahydro-4,1-benzoxazepin-7-yl)-2-furonitrile] registered a melting point of 99 to 100 °C.

Regarding `CCC1(c2cccs2)OCC(=O)Nc2ccc(-c3sc(C#N)cc3C)cc21` (centres unmarked) [Example 140, 5-(5-Ethyl-2-oxo-5-thien-2-yl-1,2,3,5-tetrahydro-4,1-benzoxazepin-7-yl)-4-methylthiophene-2-carbonitrile], the melting point lay in the range of 182 to 184 °C.

On to `CCC1(c2cccs2)OCC(=O)Nc2ccc(-c3ccc(F)c(C#N)c3)cc21` (centres unmarked) [Example 139, 5-(5-Ethyl-2-oxo-5-thien-2-yl-1,2,3,5-tetrahydro-4,1-benzoxazepin-7-yl)-2-fluorobenzonitrile], for which the melting point fell in the range of 197 to 199 °C.
